Test results taken from publication PMC9410420, “Novel Labdane Diterpenes-Based Synthetic Derivatives: Identification of a Bifunctional Vasodilator That Inhibits CaV1.2 and Stimulates KCa1.1 Channels” (Marine Drugs, 2022).

Tests used:
[1] = tested on: Langendorff perfused rat heart; test: Langendorff perfused rat heart (LVP, CPP, ECG); conditions: for QRS (intraventricular conduction time): control 13.4 ± 0.7; for PQ (atrioventricular conduction time): control 37.8 ± 1.8; for QTc (corrected QT): control 72.97 ± 1.7; for RR (cycle length): control 231.4 ± 7.8; for HR (frequency): control 261.9 ± 9.6
Description: Spontaneously beating heart was retrogradely perfused via the aorta at a constant perfusion flow in a Langendorff apparatus (Radnoti, Dublin, Ireland) with a physiological salt solution containing (mM) NaCl 118, KCl 4.7, CaCl2 2.5, MgSO4 1.2, NaHCO3 25, KH2PO4 1.2, glucose 11.5, Na pyruvate 2, and EDTA 0.5, and bubbled with a 95% O2−5% CO2 gas mixture (pH 7.4), and kept at 37 °C, as described elsewhere. Hearts were allowed to equilibrate for at least 20 min before 7 exposure. Heart contractility was measured as left ventricle developed pressure (LVDP) using a deionized water-filled latex balloon, connected to a pressure transducer (BLPR, WPI, Berlin, Germany) and inserted into the left ventricular cavity through the mitral valve. A pressure transducer (BLPR, WPI, Berlin, Germany) was placed in the inflow line, to record coronary perfusion pressure (CPP), a measure of coronary vascular resistance. Two steel electrodes, one positioned on the left atrium and the other on the apex of the heart, were used to record the surface electrocardiogram. Heart rate (HR) and RR (cycle length), PQ (atrioventricular conduction time), QRS (intraventricular conduction time), and QT (ventricular depolarization and repolarization) intervals were measured. The digital PowerLab data acquisition system (PowerLab 8/30; ADInstruments, Castle Hill, Australia) and Chart Pro for Windows software v. 7.3.7 (PowerLab; ADInstruments, Castle Hill, Australia) were used to record and analyze LVP, CPP, and ECG. As the QT interval is affected by HR changes (e.g., it shortens when HR increases), Bazett's formula normalized to average rat RR (QTc = QT/(RR/f)1/2) was routinely used to correct it, thus avoiding confounding effects. In this study, “f” (the normalization factor according to the basal RR duration) was 231.4 ms, as this was the average cardiac cycle length.

CaV1.2 channel = target: T1, CaV1.2 channel (Rattus norvegicus, UniProt P22002); test: Whole-cell patch-clamp, Ba2+ current through CaV1.2 channels (IBa1.2) in rat tail artery myocytes; assay type: cell-based; conditions: pulses to 10 mV from Vh −50 mV
T1 construct: smooth muscle cells were freshly isolated; endogenous in cells; host or cells: freshly isolated rat tail main artery smooth muscle cells
T1 sequence (P22002 whole entry): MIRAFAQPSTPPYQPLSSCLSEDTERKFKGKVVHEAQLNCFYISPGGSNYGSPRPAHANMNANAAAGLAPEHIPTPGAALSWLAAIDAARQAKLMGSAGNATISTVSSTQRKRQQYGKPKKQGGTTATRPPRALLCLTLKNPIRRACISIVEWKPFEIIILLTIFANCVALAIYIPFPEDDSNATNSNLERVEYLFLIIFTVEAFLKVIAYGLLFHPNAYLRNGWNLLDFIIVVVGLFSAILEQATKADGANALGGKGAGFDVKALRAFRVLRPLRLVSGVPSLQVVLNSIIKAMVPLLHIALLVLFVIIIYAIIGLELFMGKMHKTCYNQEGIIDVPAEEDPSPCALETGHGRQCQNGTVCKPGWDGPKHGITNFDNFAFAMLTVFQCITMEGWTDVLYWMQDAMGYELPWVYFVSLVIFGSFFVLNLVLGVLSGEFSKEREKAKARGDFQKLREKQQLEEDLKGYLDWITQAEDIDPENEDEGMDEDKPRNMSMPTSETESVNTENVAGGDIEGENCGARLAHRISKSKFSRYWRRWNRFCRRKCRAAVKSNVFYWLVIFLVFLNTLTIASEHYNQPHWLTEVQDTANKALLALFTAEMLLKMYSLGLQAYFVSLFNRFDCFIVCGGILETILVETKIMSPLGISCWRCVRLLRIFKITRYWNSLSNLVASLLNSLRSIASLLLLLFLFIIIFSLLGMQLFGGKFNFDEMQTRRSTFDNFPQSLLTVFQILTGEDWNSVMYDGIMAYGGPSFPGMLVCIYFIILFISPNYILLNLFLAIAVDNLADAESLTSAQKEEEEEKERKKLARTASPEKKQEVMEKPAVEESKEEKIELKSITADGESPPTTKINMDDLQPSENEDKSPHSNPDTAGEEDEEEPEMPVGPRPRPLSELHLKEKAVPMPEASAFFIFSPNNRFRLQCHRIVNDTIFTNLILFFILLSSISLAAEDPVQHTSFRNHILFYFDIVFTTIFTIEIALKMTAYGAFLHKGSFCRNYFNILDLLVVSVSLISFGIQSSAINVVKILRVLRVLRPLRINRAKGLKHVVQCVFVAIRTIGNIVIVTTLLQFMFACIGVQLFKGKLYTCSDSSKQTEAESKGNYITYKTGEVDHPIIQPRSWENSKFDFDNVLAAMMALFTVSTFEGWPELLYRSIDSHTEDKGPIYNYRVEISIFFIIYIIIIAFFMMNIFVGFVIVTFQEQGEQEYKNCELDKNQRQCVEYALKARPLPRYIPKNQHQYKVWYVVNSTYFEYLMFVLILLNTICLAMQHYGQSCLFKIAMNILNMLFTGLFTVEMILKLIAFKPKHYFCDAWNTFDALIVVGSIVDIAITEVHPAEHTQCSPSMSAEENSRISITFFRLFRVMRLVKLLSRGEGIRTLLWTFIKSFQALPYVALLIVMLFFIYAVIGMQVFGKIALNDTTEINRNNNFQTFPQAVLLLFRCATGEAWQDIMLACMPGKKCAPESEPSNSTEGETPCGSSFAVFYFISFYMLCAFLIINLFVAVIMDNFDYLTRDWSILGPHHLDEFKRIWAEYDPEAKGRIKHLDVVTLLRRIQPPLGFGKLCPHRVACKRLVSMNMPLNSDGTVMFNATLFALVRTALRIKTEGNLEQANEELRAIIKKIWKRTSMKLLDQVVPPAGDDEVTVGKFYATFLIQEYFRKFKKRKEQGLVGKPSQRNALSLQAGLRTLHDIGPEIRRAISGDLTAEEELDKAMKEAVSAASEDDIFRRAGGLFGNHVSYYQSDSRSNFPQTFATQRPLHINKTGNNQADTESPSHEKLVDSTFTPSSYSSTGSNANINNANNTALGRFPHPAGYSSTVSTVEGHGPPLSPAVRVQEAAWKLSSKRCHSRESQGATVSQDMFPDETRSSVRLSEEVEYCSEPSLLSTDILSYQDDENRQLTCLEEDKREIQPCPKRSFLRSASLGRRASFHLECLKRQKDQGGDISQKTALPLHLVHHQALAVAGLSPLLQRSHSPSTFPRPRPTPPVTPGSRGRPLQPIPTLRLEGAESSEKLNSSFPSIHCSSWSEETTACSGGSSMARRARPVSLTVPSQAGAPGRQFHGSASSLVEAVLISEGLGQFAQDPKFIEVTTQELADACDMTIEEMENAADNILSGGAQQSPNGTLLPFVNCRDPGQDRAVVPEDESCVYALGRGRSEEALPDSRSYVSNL
T1 sequence (P54290 25-944 partner limits assumed): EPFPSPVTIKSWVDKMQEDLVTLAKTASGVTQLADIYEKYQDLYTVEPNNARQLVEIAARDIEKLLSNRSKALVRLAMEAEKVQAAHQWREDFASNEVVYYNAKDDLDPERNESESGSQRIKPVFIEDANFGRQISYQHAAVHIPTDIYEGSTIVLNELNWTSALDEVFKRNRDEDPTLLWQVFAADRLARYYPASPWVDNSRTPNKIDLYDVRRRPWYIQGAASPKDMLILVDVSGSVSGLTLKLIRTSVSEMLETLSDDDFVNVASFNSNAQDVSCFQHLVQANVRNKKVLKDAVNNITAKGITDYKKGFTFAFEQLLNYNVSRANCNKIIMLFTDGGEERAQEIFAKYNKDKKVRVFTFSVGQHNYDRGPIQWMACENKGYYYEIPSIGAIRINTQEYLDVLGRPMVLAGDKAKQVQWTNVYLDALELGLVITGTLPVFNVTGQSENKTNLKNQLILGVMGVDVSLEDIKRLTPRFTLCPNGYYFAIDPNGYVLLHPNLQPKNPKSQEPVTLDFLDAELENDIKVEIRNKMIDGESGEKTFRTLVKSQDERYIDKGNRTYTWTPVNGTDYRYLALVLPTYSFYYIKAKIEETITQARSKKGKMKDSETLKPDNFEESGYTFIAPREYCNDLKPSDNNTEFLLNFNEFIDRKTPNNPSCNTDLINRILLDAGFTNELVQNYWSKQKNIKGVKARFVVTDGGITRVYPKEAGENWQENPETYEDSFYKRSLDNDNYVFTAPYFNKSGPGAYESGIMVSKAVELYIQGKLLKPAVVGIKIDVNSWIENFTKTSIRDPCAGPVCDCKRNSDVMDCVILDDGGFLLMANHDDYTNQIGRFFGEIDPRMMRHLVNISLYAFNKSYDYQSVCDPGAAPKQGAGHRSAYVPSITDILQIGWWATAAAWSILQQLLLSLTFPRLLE
T1 sequence (P54290 945-1091 partner limits assumed): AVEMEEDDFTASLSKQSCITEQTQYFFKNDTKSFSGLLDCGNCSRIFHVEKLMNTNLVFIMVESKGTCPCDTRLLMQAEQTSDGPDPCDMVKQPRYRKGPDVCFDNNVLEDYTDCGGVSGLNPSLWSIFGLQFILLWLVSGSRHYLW
T1 sequence (P54287 whole entry partner): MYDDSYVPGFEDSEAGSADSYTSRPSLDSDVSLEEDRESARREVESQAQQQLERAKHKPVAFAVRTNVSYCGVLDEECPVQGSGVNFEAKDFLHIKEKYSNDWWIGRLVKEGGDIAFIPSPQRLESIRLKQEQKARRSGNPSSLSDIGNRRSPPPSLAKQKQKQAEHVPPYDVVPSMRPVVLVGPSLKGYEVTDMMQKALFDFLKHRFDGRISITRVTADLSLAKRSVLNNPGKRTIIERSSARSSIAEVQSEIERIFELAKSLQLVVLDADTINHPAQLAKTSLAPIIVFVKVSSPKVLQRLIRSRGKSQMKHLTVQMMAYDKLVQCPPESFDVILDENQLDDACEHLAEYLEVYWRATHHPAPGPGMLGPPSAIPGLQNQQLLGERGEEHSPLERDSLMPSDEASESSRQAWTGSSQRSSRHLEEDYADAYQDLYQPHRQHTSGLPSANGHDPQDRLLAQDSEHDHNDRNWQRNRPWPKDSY
Description: The tail main artery was dissected free of its connective tissue, and smooth muscle cells were freshly isolated under the following conditions. […] Cells stored in 0.05 mM Ca^2+ external solution containing 20 mM taurine and 0.5 mg/mL BSA at 4 °C under normal air were used for experiments within two days after isolation.
An Axopatch 200B patch-clamp amplifier (Molecular Devices Corporation, Sunnyvale, CA, USA) was used to generate and apply voltage pulses to the clamped cells and record the corresponding membrane currents. Recording electrodes were pulled from borosilicate glass capillaries (WPI, Berlin, Germany) and fire-polished to obtain a pipette resistance of 2–4 MΩ, when filled with an internal solution. At the beginning of each experiment, the junction potential between the pipette and bath solution was electronically adjusted to zero. […] Electrophysiological responses were tested at room temperature (20–22 °C).
The conventional whole-cell patch-clamp method was employed to voltage-clamp smooth muscle cells. The internal solution consisted of (in mM) 100 CsCl, 10 HEPES, 11 EGTA, 2 MgCl2, 1 CaCl2 (pCa 8.4), 5 Na pyruvate, 5 succinic acid, 5 oxaloacetic acid, 3 Na2ATP, and 5 phosphocreatine; pH was adjusted to 7.4 with CsOH. IBa1.2 was recorded in an external solution containing 30 mM TEA and 5 mM Ba^2+. […] Data were collected once the current amplitude had been stabilized (usually 7–10 min after the whole-cell configuration had been obtained).

## CC1(C)CCC[C@]2(C)[C@@H](CC(=O)Nc3ccccc3-n3cccc3)[C@](C)(O)CC[C@@H]12 [Compound 7]
[1]; 1 µM
  QRS (intraventricular conduction time): 13.6 ± 0.5 ms
  PQ (atrioventricular conduction time): 37.2 ± 2.0 ms
  QTc (corrected QT): 71.59 ± 0.8 ms
  RR (cycle length): 230.8 ± 7.4 ms
  HR (frequency): 261.8 ± 9.4 bpm
[1]; 3 µM
  QRS (intraventricular conduction time): 14.0 ± 0.6 ms
  PQ (atrioventricular conduction time): 37.4 ± 1.9 ms
  QTc (corrected QT): 72.65 ± 1.3 ms
  RR (cycle length): 231.8 ± 7.1 ms
  HR (frequency): 256.9 ± 8.3 bpm
[1]; 10 µM
  QRS (intraventricular conduction time): 13.9 ± 0.6 ms
  PQ (atrioventricular conduction time): 39.0 ± 1.9 ms
  QTc (corrected QT): 73.31 ± 1.2 ms
  RR (cycle length): 236.4 ± 7.1 ms
  HR (frequency): 255.3 ± 8.0 bpm
[1]; 30 µM
  QRS (intraventricular conduction time): 15.2 ± 0.8 ms
  PQ (atrioventricular conduction time): 42.2 ± 2.7 ms
  QTc (corrected QT): 75.13 ± 1.7 ms
  RR (cycle length): 249.8 ± 10.7 ms
  HR (frequency): 242.8 ± 11.5 bpm
[1]; 1–30 µM, n = 5
  Effect on coronary perfusion pressure (CPP): significantly decreased CPP
  Effect on left ventricular pressure (LVP): leaving LVP unaltered
CaV1.2 channel; read-out: Emax (percent maximal inhibition), IBa1.2
  Emax: 90.5 ± 5.8%
CaV1.2 channel; read-out: IC50, IBa1.2 inhibition
  IC50: 13.2 ± 5.4 µM
